Experiment [1] has as its system PD-L1 aAPC/CHO-K1 cells and Jurkat-PD-1-NFAT effector cells. In words: Nuclear factor of activated T-cells (NFAT) assay. It counts as cell-based. The note with it: Cricetulus griseus; PD-L1 aAPC/CHO-K1 cells with Jurkat-PD-1-NFAT effector cells, 24 hours. In a few lines: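 PD-L1 aAPC/CHO-K1 cells co-cultured with Jurkat-PD-1-NFAT effector cells in RPMI 1640 with 1% FBS, compound top concentration 2 μM, 0.4% DMSO, 24 h at 37 °C. Bio-Glo luminescence read; fold induction normalized to DMSO wells, maximum induction relative to control compound, EC50 from percent control activity versus log concentration.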

The target of another experiment is PD-L1 (Homo sapiens (Human), UniProt Q9NZQ7). Nature of the experiment: PD-L1 whole blood internalization assay. To be noted: 1 ng/ml human interferon γ, PD-L1 expression on CD14+ cells, read-out: Whole Blood (24 HR) IC50. It counts as cell-based. In short, it runs like this: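 Normal human whole blood was exposed to a range of test compound concentrations together with 1 ng/ml human interferon γ, then stained for PD-L1 and CD14 for 30 minutes at room temperature in the dark. After red cell lysis/fixation and centrifugation, CD14+ cells were analyzed by flow cytometry for PD-L1 MFI, and IC50 values came from percent inhibition versus log concentration fits.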

Another experiment has as its target PD-1/PD-L1 (Homo sapiens (Human), UniProt Q9NZQ7). Nature of the experiment: Homogeneous Time-Resolved Fluorescence (HTRF) PD-1/PD-L1 binding assay. To be noted: recombinant human PD-1 and PD-L1, 25° C., pH 7.4. In a few lines:
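His-tagged PD-L1 (19-238, 10 nM) and Fc-tagged PD-1 (25-167, 3 nM) preincubated 40 min with inhibitors in PBS pH 7.4, 0.05% Tween-20, 0.1% BSA, 1% DMSO, 25 °C. Eu anti-IgG (1 nM) and anti-His-APC (20 nM) added, 60 min at 25 °C; 665/620 nm ratio fitted for IC50.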

Experiment [2] deals with U2OS/PD-L1 cells and Jurkat-PD-1-SHP cells. Nature of the experiment: Src homology region 2 domain-containing phosphatase (SHP) assay. It counts as cell-based. To be noted: Homo sapiens; U2OS/PD-L1 cells with Jurkat-PD-1-SHP cells, 2 hours. The method, then: Example B. Src Homology Region 2 Domain-Containing Phosphatase (SHP) Assay
U2OS/PD-L1 cells (DiscoveRx Corporation) were maintained in McCoy's 5A medium with addition of 10% FBS, 0.25 μg/ml Puromycin. After removing the culture media, the cell medium was replaced with assay medium (RPMI1640 medium with 1% FBS). The U2OS/PD-L1 cells were then added in 384-well black clear bottom assay plate (CELLCOAT® Tissue Culture Plates, Greiner Bio-One) at 5000 cells per well in 20 μL assay medium. Test compounds were prepared by serial dilution in DMSO and 125 nL compound were first transferred to the 384 REMP plate well (Thermofisher) by ECHO liquid handler (Labcyte) followed with addition of 27.5 μL assay medium. 5 μL/well compounds in the assay medium were transferred to the cell plate with 0.05% DMSO in the final assay at 0.5 μM. Jurkat-PD-1-SHP cells (DiscoveRx Corporation) were cultured in RPMI1640 medium supplemented with 10% FBS, 250 μg/ml Hygromycin B, 500 μg/ml G418. After the replacement of culture media with assay medium, 5,000 Jurkat-PD-1-SHP cells in 20 μL were dispensed into each well. The assay plate was incubated at 37° C., 5% CO2 for 2 hours before 2.5 μL PathHunter reagent 1 (DiscoveRx Corporation) were added to each well. The assay plate was shaken for 1 min at 350 rpm in the dark followed with addition of 10 μL PathHunter reagent 2 (DiscoveRx Corporation). Chemiluminescent signal was recorded with TopCount reader (Perkin Elmer) after incubation at room temperature for 1 hour. Wells with DMSO were served as the positive controls and wells containing no cells were used as negative controls. IC50 determination was performed by fitting the curve of percentage of control activity versus the log of the compound concentration using the GraphPad Prism 6.0 software.

Sequence of PD-1/PD-L1 (Q9NZQ7 19-238): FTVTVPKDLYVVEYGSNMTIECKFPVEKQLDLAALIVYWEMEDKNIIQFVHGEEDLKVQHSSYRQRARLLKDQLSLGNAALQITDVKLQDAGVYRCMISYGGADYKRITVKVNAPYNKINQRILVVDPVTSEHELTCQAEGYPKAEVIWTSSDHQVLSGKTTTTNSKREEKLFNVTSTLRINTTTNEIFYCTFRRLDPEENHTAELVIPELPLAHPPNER
Sequence of PD-L1 (Q9NZQ7 19-290): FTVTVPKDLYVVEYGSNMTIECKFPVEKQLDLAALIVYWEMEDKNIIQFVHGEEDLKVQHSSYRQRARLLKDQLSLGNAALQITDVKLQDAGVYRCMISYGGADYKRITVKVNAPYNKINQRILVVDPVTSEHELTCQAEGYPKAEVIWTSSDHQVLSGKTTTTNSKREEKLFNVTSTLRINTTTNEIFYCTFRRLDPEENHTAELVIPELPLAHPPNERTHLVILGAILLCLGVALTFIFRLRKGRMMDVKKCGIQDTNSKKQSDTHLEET

`Cc1nc(Nc2cccc(-c3cccc(-c4nc5cc(CN6CC[C@@H](C(=O)O)C6)cc(C#N)c5o4)c3C)c2C)c2ncc(CN3CC[C@@H](O)C3)cc2n1` [Example 6, (R)-1-((7-cyano-2-(3′-(7-(((R)-3-hydroxypyrrolidin-1-yl)methyl)-2-methylpyrido[3,2-d]pyrimidin-4-ylamino)-2,2′-dimethylbiphenyl-3-yl)benzo[d]oxazol-5-yl)methyl)pyrrolidine-3-carboxylic Acid] yielded an EC50 in experiment [1] of 10 to 100 nM. Also, the IC50 on PD-L1 is 10 to 100 nM; at PD-1/PD-L1 it was not above 10 nM; in experiment [2], not above 10 nM.

Regarding `Cc1nc(Nc2cccc(-c3cccc(-c4nc5cc(CN6CC[C@@H](C(=O)O)C6)cc(C#N)c5o4)c3C)c2C)c2ncc(CN3CC[C@](C)(O)C3)cc2n1` [Example 8, (R)-1-((7-cyano-2-(3′-(7-(((S)-3-hydroxy-3-methylpyrrolidin-1-yl)methyl)-2-methylpyrido[3,2-d]pyrimidin-4-ylamino)-2,2′-dimethylbiphenyl-3-yl)benzo[d]oxazol-5-yl)methyl)pyrrolidine-3-carboxylic Acid], the EC50 in experiment [1] lay within 10 to 100 nM. The IC50 at PD-L1 was 10 to 100 nM; on PD-1/PD-L1, not above 10 nM; in experiment [2] it was not above 10 nM.

Compound `Cc1nc(Nc2cccc(-c3cccc(-c4nc5cc(CN6CC[C@@](C)(C(=O)O)C6)cc(C#N)c5o4)c3C)c2C)c2ncc(CN[C@@H](C)CO)cc2n1` [Example 14, (R)-1-((7-cyano-2-(3′-(7-(((S)-1-hydroxypropan-2-ylamino)methyl)-2-methylpyrido[3,2-d]pyrimidin-4-ylamino)-2,2′-dimethylbiphenyl-3-yl)benzo[d]oxazol-5-yl)methyl)-3-methylpyrrolidine-3-carboxylic Acid] returned an EC50 in experiment [1] of 10 to 100 nM. For the same compound, the IC50 was 10 to 100 nM at PD-L1, not above 10 nM at PD-1/PD-L1 and not above 10 nM in experiment [2].

On to `Cc1c(Nc2nc(C(F)F)nc3cc(CN4CC[C@@](C)(O)C4)cnc23)cccc1-c1cccc(-c2nc3cc(CN4CCC(C(=O)O)CC4)cc(C#N)c3o2)c1C` [Example 30, (R)-1-((7-cyano-2-(3′-(2-(difluoromethyl)-7-((3-hydroxy-3-methylpyrrolidin-1-yl)methyl)pyrido[3,2-d]pyrimidin-4-ylamino)-2,2′-dimethylbiphenyl-3-yl)benzo[d]oxazol-5-yl)methyl)piperidine-4-carboxylic Acid], for which the EC50 in experiment [1] was not above 10 nM. Further, the IC50 is 10 to 100 nM at PD-L1, not above 10 nM at PD-1/PD-L1 and not above 10 nM in experiment [2].

For `Cc1nc(Nc2cccc(-c3cccc(-c4nc5cc(CN6CC[C@@](C)(C(=O)O)C6)cc(C#N)c5o4)c3C)c2C)c2ncc(CN3CC[C@@](C)(O)C3)cc2n1` [Example 12, (R)-1-((7-cyano-2-(3′-(7-(((R)-3-hydroxy-3-methylpyrrolidin-1-yl)methyl)-2-methylpyrido[3,2-d]pyrimidin-4-ylamino)-2,2′-dimethylbiphenyl-3-yl)benzo[d]oxazol-5-yl)methyl)-3-methylpyrrolidine-3-carboxylic Acid], the EC50 in experiment [1] fell in the range of 10 to 100 nM. For the same compound, the IC50 at PD-L1 is 10 to 100 nM; on PD-1/PD-L1, not above 10 nM; in experiment [2], not above 10 nM.

In experiment [1], `Cc1c(Nc2nc(C(F)F)nc3cc(CN4CC[C@@H](O)C4)cnc23)cccc1-c1cccc(-c2nc3cc(CN4CCC(C(=O)O)CC4)cc(C#N)c3o2)c1C` [Example 16, (R)-1-((7-cyano-2-(3′-(2-(difluoromethyl)-7-((3-hydroxypyrrolidin-1-yl)methyl)pyrido[3,2-d]pyrimidin-4-ylamino)-2,2′-dimethylbiphenyl-3-yl)benzo[d]oxazol-5-yl)methyl)piperidine-4-carboxylic Acid] came in with an EC50 not above 10 nM. Besides, the IC50 was 10 to 100 nM on PD-L1, not above 10 nM at PD-1/PD-L1 and not above 10 nM in experiment [2].

As for `Cc1c(Nc2nc(N)nc3cc(CN4CC[C@@H](O)C4)cnc23)cccc1-c1cccc(-c2nc3cc(CN4CCC(C(=O)O)CC4)cc(C#N)c3o2)c1C` [Example 29, (R)-1-((2-(3′-(2-amino-7-((3-hydroxypyrrolidin-1-yl)methyl)pyrido[3,2-d]pyrimidin-4-ylamino)-2,2′-dimethylbiphenyl-3-yl)-7-cyanobenzo[d]oxazol-5-yl)methyl)piperidine-4-carboxylic Acid], the EC50 in experiment [1] is 10 to 100 nM. The IC50 on PD-L1 was 10 to 100 nM; at PD-1/PD-L1, not above 10 nM; in experiment [2] it was not above 10 nM.

`Cc1nc(Nc2cccc(-c3cccc(-c4nc5cc(CN6CC[C@@](C)(C(=O)O)C6)cc(C#N)c5o4)c3C)c2C)c2ncc(CN3CC[C@@H](O)C3)cc2n1` [Example 11, (R)-1-((7-cyano-2-(3′-(7-(((R)-3-hydroxypyrrolidin-1-yl)methyl)-2-methylpyrido[3,2-d]pyrimidin-4-ylamino)-2,2′-dimethylbiphenyl-3-yl)benzo[d]oxazol-5-yl)methyl)-3-methylpyrrolidine-3-carboxylic Acid] had an EC50 in experiment [1] of 10 to 100 nM. For the same compound, the IC50 on PD-L1 is 10 to 100 nM; at PD-1/PD-L1, not above 10 nM; in experiment [2] it was not above 10 nM.

`Cc1c(Nc2nc(C(F)F)nc3cc(CN4CC[C@@H](O)C4)cnc23)cccc1-c1cccc(-c2nc3cc(CN4CC[C@@H](C(=O)O)C4)cc(C#N)c3o2)c1C` [Example 17, (R)-1-((7-cyano-2-(3′-(2-(difluoromethyl)-7-(((R)-3-hydroxypyrrolidin-1-yl)methyl)pyrido[3,2-d]pyrimidin-4-ylamino)-2,2′-dimethylbiphenyl-3-yl)benzo[d]oxazol-5-yl)methyl)pyrrolidine-3-carboxylic Acid] registered an EC50 in experiment [1] of 10 to 100 nM. Also, the IC50 is 10 to 100 nM on PD-L1, not above 10 nM at PD-1/PD-L1 and not above 10 nM in experiment [2].

In experiment [1], `Cc1nc(Nc2cccc(-c3cccc(-c4nc5cc(CN6CCC(C(=O)O)CC6)cc(C#N)c5o4)c3C)c2C)c2ncc(CN3CC[C@@H](O)C3)cc2n1` [Example 1, (R)-1-((7-cyano-2-(3′-(7-((3-hydroxypyrrolidin-1-yl)methyl)-2-methylpyrido[3,2-d]pyrimidin-4-ylamino)-2,2′-dimethylbiphenyl-3-yl)benzo[d]oxazol-5-yl)methyl)piperidine-4-carboxylic Acid] registered an EC50 of 10 to 100 nM. The IC50 was 10 to 100 nM on PD-L1, not above 10 nM on PD-1/PD-L1 and not above 10 nM in experiment [2].

For the origin of these results see patent US10669271B2, “Heterocyclic compounds as immunomodulators” (Incyte Corporation, priority 2018, dated 2020).
